Source: patent US5734081A, “Arylthio compounds” (Warner-Lambert Company, priority 1995, dated 1998)
Like-named read-outs stand apart in the source and are kept apart here.

How the values were obtained:
[1] = tested on: HIV-1; test: CEM cell assay, anti-HIV-1 activity; assay type: cell-based; conditions: Human immunodeficiency virus 1, CCRF-CEM, HIV-1, 6 or 7 days, read-out: EC50 (Effective Concentration which protects cells from viral cytopathic effects)
In short: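 CEM T4 lymphocytes infected with HIV at virus:cell ratio ~0.05, then treated with half-log10 dilutions of compound from DMSO stock and incubated 6 or 7 days at 37° in 5% CO2. Protection from virus-induced cell killing was read by XTT formazan absorbance and microscopy versus drug-treated noninfected cells and untreated controls.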

[2] = tested on: HIV-1RF; test: Anti-HIV activity, HIV-1RF in CEM cells; assay type: cell-based; conditions: Human immunodeficiency virus 1, CCRF-CEM; CEM, HIV-1RF; read-out: EC50
Experimental: (§1) Yet another test system employed to determine antiviral activity is called the CEM cell assay.
(§2) T4 lymphocytes (CEM cell line) are exposed to HIV at a virus to cell ratio approximately 0.05, and plated along with noninfected control cells in 96-well microliter plates.
(§3) The candidate agent is dissolved in dimethyl sulfoxide (unless otherwise noted), then diluted 1:200 in cell culture medium. Further dilutions (half-log10) are prepared before adding to an equal volume of medium containing either infected or noninfected cells. Cultures are incubated at 37° in a 5% carbon dioxide atmosphere for 6 or 7 days. The tetrazolium salt, XTT, is added to all wells, and cultures are incubated to allow formazan color development by viable cells (J. National Cancer Institute, 1989;81:577-586). Individual wells are analyzed spectrophotometrically to quantitate formazan production, and in addition are viewed microscopically for detection of viable cells confirmation of protective activity.
(§4) Drug-tested virus-infected cells are compared with drug-treated noninfected cells and with other appropriate controls (untreated infected and untreated noninfected cells, drug-contain wells without cells, etc.) on the same plate. Data are reviewed in comparison with other tests done at the same time and a determination about activity is made.
(§5) The compounds of the invention were also evaluated against various other HIV strains and cell lines utilizing the assay methodology described above. The compounds were additionally evaluated against clinical isolates of HIV strains.

[3] = tested on: HIV-1IIIb; test: Anti-HIV activity, HIV-1IIIb in CEM cells; assay type: cell-based; conditions: CEM, HIV-1IIIb, read-out: EC50
Experimental: as §1, §2, §3, §4, §5

[4] = tested on: HIV-1A17; test: Anti-HIV activity, HIV-1A17 in MT-2 cells; assay type: cell-based; conditions: Human immunodeficiency virus 1, MT2
Experimental: as §5

[5] = tested on: HIV-16R; test: Anti-HIV activity, HIV-16R in MT-4 cells; assay type: cell-based, HIV-1; conditions: Human immunodeficiency virus 1, MT4
Experimental: as §5

[6] = tested on: HIV-2ROD; test: Anti-HIV activity, HIV-2ROD in CEM cells; assay type: cell-based; conditions: Human immunodeficiency virus 2, CCRF-CEM; CEM, HIV-2ROD; read-out: EC50
Experimental: as §1, §2, §3, §4, §5

[7] = tested on: SIV; test: Antiviral activity, SIV in CEM cells; assay type: cell-based; conditions: Simian immunodeficiency virus, CCRF-CEM, read-out: EC50
[8] = Human immunodeficiency virus 1, CCRF-CEM

SMILES: NS(=O)(=O)c1ccc(NC(=O)c2ccccc2SSc2ccccc2C(=O)Nc2ccc(S(N)(=O)=O)cc2)cc1 [Example 1]
- EC50 [1]: 2900 nM
- EC50 [2]: 2300 nM
- EC50 [3]: 4600 nM
- EC50 [3, 8]: 2800 nM
- EC50 [4]: 600 nM
- EC50 [5]: 1900 nM
- EC50 [6]: 2600 nM
- EC50 [7]: 14600 nM

SMILES: CC(=O)Nc1ccc(SSc2ccc(NC(C)=O)cc2C(N)=O)c(C(N)=O)c1 [Example 9, 2,2'-Dithiobis(5-acetylamino)benzamide]
- EC50 [1]: 5200 nM
- EC50 [2]: 400 nM
- EC50 [3, 8]: 400 nM
- EC50 [6]: 1000 nM
- EC50 [7]: 2100 nM
